Five compounds from US6465221B1, “Method of producing a taxane-type diterpene” (Mitsui Chemicals, Inc., priority 1994, dated 2002) can be followed below.

Holding throughout (assay type): cell-based
In assay [1] the test system is cultured cells of Taxus baccata LINN. The assay can be described thus: Taxus baccata cell culture with coronatines. As for the experimental part: A part of stem of Taxus baccata LINN which had been previously sterilized with 2% antiformin solution or 70% ethanol solution or the like, was placed on solid Woody Plant Medium (containing gelan gum of 0.25% by weight) to which naphthalenacetic acid had been added to give the concentration of 10^−5 M, and static culture was carried out at 25 ° C. in a dark place to provide callus of Taxus baccata LINN. One gram (fresh weight) of the callus was inoculated to an Erlenmeyer flask containing 20 ml of liquid Woody Plant Medium to which the above-mentioned component was added to give the same concentration and shake culture was carried out with a rotary shaker (amplification of 25 mm, 120 rpm) and the callus was subcultured in every 21 days to accelerate the growth rate thereof.
(§1) One gram (fresh weight) of the cultured cells thus obtained was inoculated to an Erlenmeyer flask containing 20 ml of liquid Woody Plant Medium to which the above-mentioned component was added to give the same concentration, and shake culture was carried out at 25° C. for 14 days. On the 14th day after starting the culture, 50 μl of coronatine [formula (IV)] was added as coronatines to the culture medium to give the final concentration of 0.001-1000 μM and the culture was further carried out for another 7 days.
(§2) After completing the culture, cultured cells of Taxus baccata LINN were harvested by filtration and lyophilized, then the dry weight was measured to obtain the yeild of the cultured cells per liter of the liquid medium.

Assay [2] has as its system cultured cells of Taxus media. In words: Taxus media cell culture with coronatine. The following applies: concentration of coronatines 1 μM. As to the method: as §1, §2
Example 7 was repeated except that cultured cells of Taxus media, which was obtained in the process analogous to that of said example were used and coronatine was added as coronatines to give the final concentration of 1 μM.

Assay [3] deals with cultured cells of Taxus baccata LINN. In words: Taxus baccata cell culture with cyclic polysaccharides. As to the method:
A part of stem of Taxus baccata LINN which had been previously sterilized with 2% antiformin solution or 70% ethanol solution or the like, was placed on solid Woody Plant Medium (containing gelan gum of 0.25% by weight) to which naphthalenacetic acid had been added to give the concentration of 10^−5 M, and static culture was carried out at 25° C. in a dark place to provide callus of Taxus baccata LINN. 0.1 g (fresh weight) of the callus was inoculated to a well having an inner diameter of 18 mm, containing 1 ml of liquid Woody Plant Medium to which the above-mentioned component was added to give the same concentration and shake culture was carried out with a rotary shaker (amplification of 25 mm, 120 rpm) and the callus was subcultured in every 28 days to accelerate the growth rate thereof.
One gram (fresh weight) of the cultured cells thus obtained was inoculated to an Erlenmeyer flask containing 20 ml of liquid Woody Plant Medium to which the above-mentioned component was added to give the same concentration, and shake culture was carried out at 25° C. for 14 days. […]
After completing the culture, cultured cells of Taxus baccata LINN were harvested by filtration and lyophilized, then the dry weight was measured to obtain the yeild thereof per liter of the liquid medium.

The test system is the same in assay [4]. The assay can be described thus: Taxus baccata cell culture with cyclic polysaccharides and methyl ester of jasmonic acid. As to the method: […] After completing the culture, cultured cells of Taxus baccata LINN were harvested by filtration and lyophilized, then the dry weight was measured to obtain the yeild thereof per liter of the liquid medium.
The test system of assay [5] is cultured cells of Taxus media. In words: Taxus media cell culture with derivatives of jasmonic acids. The following applies: concentration of derivative of jasmonic acids 100 μM. As for the experimental part:
A part of germ of Taxus media which had been previously sterilized with 2% antiformin solution or 70% ethanol solution or the like, was placed on solid Woody Plant Medium (containing gelan gum of 0.25% by weight) to which naphthalenacetic acid had been added to give the concentration of 10^−5 M, and static culture was carried out at 25° C. in a dark place to provide callus of Taxus media. One gram (fresh weight) of the callus was inoculated to an Erlenmeyer flask containing 20 ml of liquid Woody Plant Medium to which above-mentioned component was added to give the same concentration, the and shake culture was carried out with a rotary shaker (amplification of 25 mm, 100 rpm) and the callus was subcultured in every 14 days to accelerate the growth rate thereof.
Two grams (fresh weight) of the cultured cells thus obtained was inoculated to an Erlenmeyer flask containing 20 ml of liquid Woody Plant […], and the culture was further carried out for another 14 days.
After completing the culture, cultured cells of Taxus media were harvested by filtration and lyophilized, then the dry weight was measured to obtain the yield of the cultured cells per liter of the liquid medium.

Where [6] appears, read: concentration of coronatines 0.001 μM.
The mark [7] stands for this setting: concentration of coronatines 0.01 μM.
Setting [8] is: concentration of coronatines 0.1 μM.
[9] abbreviates: concentration of coronatines 1 μM.
[10] abbreviates: concentration of coronatines 10 μM.
Where [11] appears, read: concentration of coronatines 100 μM.
[12] abbreviates: concentration of coronatines 1000 μM.
Where [13] appears, read: concentration of β-cyclodextrin 0.01 mM.
Where [14] appears, read: concentration of β-cyclodextrin 0.1 mM.
Where [15] appears, read: concentration of β-cyclodextrin 1 mM.
Where [16] appears, read: concentration of β-cyclodextrin 10 mM.
The mark [17] stands for this setting: β-cyclodextrin 0.01 mM + methyl ester of jasmonic acid 100 μM.
Where [18] appears, read: β-cyclodextrin 0.1 mM + methyl ester of jasmonic acid 100 μM.
The mark [19] stands for this setting: β-cyclodextrin 1 mM + methyl ester of jasmonic acid 100 μM.
[20] abbreviates: β-cyclodextrin 10 mM + methyl ester of jasmonic acid 100 μM.
Where [21] appears, read: 50 mM, 6-O-α-D-glucosyl-β-cyclodextrin was used.
Setting [22] is: 6-O-α-D-glucosyl-β-cyclodextrin 50 mM + methyl ester of jasmonic acid 100 μM.
The mark [23] stands for this setting: methyl ester of jasmonic acid 100 μM, β-cyclodextrin 0 mM.
Where [24] appears, read: cyclic polysaccharide 10 mM + methyl ester of jasmonic acid 100 μM.

Consider `CCC1C=C(C(=O)NC2(C(=O)O)CC2CC)C2CCC(=O)C2C1` (stereo not drawn) [Example 7, coronatine], for which the “yield of baccatin III” value in assay [1] (setting [6]) worked out at 5.0 mg/L; in assay [1] (setting [7]) it was 8.9 mg/L; in assay [1] (setting [8]), 18.7 mg/L; in assay [1] (setting [9]), 28.4 mg/L; in assay [1] (setting [10]), 38.5 mg/L; in assay [1] (setting [11]) it was 44.1 mg/L. Moreover, the “yield of baccatin III” value came out at 13.2 mg/L in assay [1] (setting [12]) and 26.5 mg/L in assay [2]. For the same compound, the yield of cephalomannine is 3.8 mg/L in assay [1] (setting [6]); 10.2 mg/L in assay [1] (setting [7]); 12.3 mg/L in assay [1] (setting [8]); 11.4 mg/L in assay [1] (setting [9]); 8.8 mg/L in assay [1] (setting [10]); 7.9 mg/L in assay [1] (setting [11]). The results for the yield of cephalomannine in assay [1] (setting [12]) and in assay [2] were 6.5 mg/L and 15.1 mg/L, respectively. Moreover, the “yield of cultured cells” value in assay [1] (setting [6]) amounted to 20.1 g/L; in assay [1] (setting [7]), 20.2 g/L; in assay [1] (setting [8]), 18.6 g/L; in assay [1] (setting [9]), 18.4 g/L; in assay [1] (setting [10]), 17.8 g/L; in assay [1] (setting [11]), 17.5 g/L. Also, the “yield of cultured cells” value in assay [1] (setting [12]) stood at 15.0 g/L; in assay [2], 18.6 g/L. Besides, the yield of taxol in assay [1] (setting [6]) worked out at 9.6 mg/L; in assay [1] (setting [7]), 15.2 mg/L; in assay [1] (setting [8]), 30.1 mg/L; in assay [1] (setting [9]), 60.0 mg/L; in assay [1] (setting [10]), 49.4 mg/L; in assay [1] (setting [11]), 58.0 mg/L. Besides, the yield of taxol in assay [1] (setting [12]) is 23.1 mg/L; in assay [2], 65.2 mg/L.

In the case of `OC[C@H]1O[C@@H]2O[C@H]3[C@H](O)[C@@H](O)[C@@H](O[C@H]4[C@H](O)[C@@H](O)[C@@H](O[C@H]5[C@H](O)[C@@H](O)[C@@H](O[C@H]6[C@H](O)[C@@H](O)[C@@H](O[C@H]7[C@H](O)[C@@H](O)[C@@H](O[C@H]8[C@H](O)[C@@H](O)[C@@H](O[C@H]1[C@H](O)[C@H]2O)O[C@@H]8CO)O[C@@H]7CO)O[C@@H]6CO)O[C@@H]5CO)O[C@@H]4CO)O[C@@H]3CO` [Example 13, β-cyclodextrin], the “yeild of cultured cells” value stood at 19.0 g/L in assay [3] (setting [13]), 19.1 g/L in assay [3] (setting [14]), 20.1 g/L in assay [3] (setting [15]) and 20.1 g/L in assay [3] (setting [16]). The “yield of baccatin III” value was 2.5 mg/L in assay [3] (setting [13]); 3.0 mg/L in assay [3] (setting [14]); 4.2 mg/L in assay [3] (setting [15]); 5.0 mg/L in assay [3] (setting [16]); 54.6 mg/L in assay [4] (setting [17]); 62.6 mg/L in assay [4] (setting [18]). Moreover, the “yield of baccatin III” value in assay [4] (setting [19]) is 76.0 mg/L; in assay [4] (setting [20]), 54.2 mg/L. Besides, the yield of cephalomannine in assay [3] (setting [13]) worked out at 0.7 mg/L; in assay [3] (setting [14]), 2.6 mg/L; in assay [3] (setting [15]), 3.0 mg/L; in assay [3] (setting [16]), 2.2 mg/L; in assay [4] (setting [17]) it was 8.0 mg/L; in assay [4] (setting [18]) it was 9.6 mg/L. In addition, the yield of cephalomannine was found to be 10.1 mg/L in assay [4] (setting [19]) and 12.5 mg/L in assay [4] (setting [20]). The yield of taxol in assay [3] (setting [13]) was 4.0 mg/L; in assay [3] (setting [14]), 4.2 mg/L; in assay [3] (setting [15]), 6.5 mg/L; in assay [3] (setting [16]), 10.5 mg/L; in assay [4] (setting [17]) it was 28.5 mg/L; in assay [4] (setting [18]), 35.4 mg/L. Besides, the values for the yield of taxol in assay [4] (setting [19]) and in assay [4] (setting [20]) were 42.3 mg/L and 64.4 mg/L, respectively. Besides, the “yield of cultured cells” value in assay [4] (setting [17]) worked out at 15.6 g/L; in assay [4] (setting [18]), 16.3 g/L; in assay [4] (setting [19]) it was 15.4 g/L; in assay [4] (setting [20]) it was 17.3 g/L.

On to `OC[C@H]1O[C@H](OC[C@H]2O[C@@H]3O[C@H]4[C@H](O)[C@@H](O)[C@@H](O[C@H]5[C@H](O)[C@@H](O)[C@@H](O[C@H]6[C@H](O)[C@@H](O)[C@@H](O[C@H]7[C@H](O)[C@@H](O)[C@@H](O[C@H]8[C@H](O)[C@@H](O)[C@@H](O[C@H]9[C@H](O)[C@@H](O)[C@@H](O[C@H]2[C@H](O)[C@H]3O)O[C@@H]9CO)O[C@@H]8CO)O[C@@H]7CO)O[C@@H]6CO)O[C@@H]5CO)O[C@@H]4CO)[C@H](O)[C@@H](O)[C@@H]1O` [Example 17, 6-O-α-D-glucosyl-β-cyclodextrin], for which, in assay [3] (setting [21]), the “yeild of cultured cells” value came to 20.5 g/L, the “yield of baccatin III” value was determined as 3.5 mg/L, the yield of cephalomannine was found to be 1.3 mg/L and the yield of taxol was 8.2 mg/L. Further, in assay [4] (setting [22]), the “yield of baccatin III” value was 53.0 mg/L, the yield of cephalomannine is 11.1 mg/L, the “yield of cultured cells” value worked out at 17.5 g/L and the yield of taxol amounted to 45.9 mg/L.

Turning to `CC/C=C\CC1C(=O)CCC1CC(=O)OC` (stereo not drawn) [Reference Example 1, methyl jasmonate, reference compound], in assay [4] (setting [23]), the “yield of baccatin III” value came out at 49.7 mg/L, the yield of cephalomannine turned out to be 7.3 mg/L, the “yield of cultured cells” value turned out to be 15.4 g/L and the yield of taxol came to 25.9 mg/L. Further, in assay [5], the “yield of cultured cells” value was found to be 16.8 g/L; the “yield of taxane-type diterpenes, baccatin III” value was found to be 12.1 mg/L; the “yield of taxane-type diterpenes, cephalomannine” value came out at 4.2 mg/L; the “yield of taxane-type diterpenes, taxol” value came to 48.0 mg/L.

Consider cyclofructan [Example 25], for which, in assay [4] (setting [24]), the “yield of baccatin III” value is 51.4 mg/L, the yield of cephalomannine was 9.1 mg/L, the “yield of cultured cells” value is 17.9 g/L and the yield of taxol is 48.9 mg/L.
